The subject of one assay is γ-globin gene promoter. Briefly: In vivo footprinting of the γ-globin promoter. Details: species or system human. Here is the method: To determine whether this increase was due to the transcriptional modulation of the γ-globin genes and, if so, to examine whether protein-DNA interactions of regulatory sequences for γ-globin gene expression have been changed, in vivo footprinting analysis of the γ-globin gene promoter and HSS-II region of the locus control region (LCR) were performed. […] Compared to conventional in vitro footprinting methods, which are ordinarily employed to analyze protein-DNA interactions for promoter regions and fail to disclose tissue-specific binding of nuclear proteins to cis-acting elements, in vivo footprinting technique is able to provide bona fide information on transcription factors binding to cis-acting elements that reflects in vivo situations.
(§1) Erythroid cell-rich fractions were prepared from patients' peripheral blood or bone marrow before and during treatment, and were in vivo methylated using DMS. Ligation-mediated polymerase chain reaction (LM-PCR) was performed (J. L. Mueller et al., Sci. 246:780-86, 1989). Briefly, 3-7 μg of DNA was suspended in 15 μl of solution A (40 mM Tris-HCl, pH 7.7, 50 mM NaCl) containing […] of primer. First-strand synthesis was performed by adding 7.5 μl of solution B (20 mM MgCl2, 20 mM DTT, 60 μM dNTP) and 1.5 μl of 1:4 diluted Sequenase version 2.0 (United States Biochemical; Cleveland, Ohio) with TE and incubating at 50° C. for 10 minutes. The reaction was quenched by heating at 68° C. for 10 minutes, adding 6 μl of 310 mM Tris-HCl, pH 7.7, and subsequently extracting with phenol/chloroform/isoamyl alcohol (25:24:1) and with ether. […] All of the footprints were analyzed two or more times to ensure reproducibility.
In the γ-globin gene promoter, a DNA fragment extending up to -200 bp relative to the transcription start site is sufficient to direct efficient transcription of the γ-globin genes (K. T. McDonagh et al., J. Biol. Chem. 266:11965-74, 1991; M. J. Urich Blood 75:990-99, 1990). […] Erythroblasts from a patient with sickle cell anemia, before and after butyrate treatment were analyzed. […]

Assay [1] has as its system HSS-II region of the locus control region (LCR). Briefly: In vivo footprinting of HSS-II. Details: species or system human. Here is the method:
as §1
Several lines of evidence obtained from DNA transfection and transgenic experiments have corroborated the functional importance of HSS-II of the LCR in regulating β-like globin gene expression. […] In view of these observations, the patterns of in vivo footprints of HSS-II in erythroid cell preparations that were obtained from pre-treatment and post-treatment blood samples were analyzed. […]

Assay [2] concerns γ-globin promoter fragment containing FRE-γ1. Briefly: Gel mobility shift assay with FRE-γ1 promoter fragment. Details: species or system human.
The next assay deals with fetal globin production. Particulars: cited from earlier work.
Where [3] appears, read: erythroblast nuclear extracts of thalassemic patients (FIG. 17).

`CCCC(=O)O` [AB, arginine butyrate]: the “footprints in the γ-globin promoter” value with γ-globin gene promoter (erythroblasts of a sickle cell anemia patient, post-treatment (FIG. 13)) is on record as “four major footprints in the fetal response elements”. Further, the “induction of transcription factors interacting with the γ-globin gene promoter” value with γ-globin gene promoter (sickle cell anemia patient) is “induces multiple transcription factors which interact with the γ-globin gene promoter, resulting in activation”. Besides, the “degree of protection on G residues in FRE-γ1” value in the assay with γ-globin gene promoter (β-thalassemia and sickle cell anemia patients (FIG. 14)) is listed as “consistently increased”. Also, in assay [1] (erythroblasts of treated sickle cell patient (FIG. 15)), the “footprints over HSS-II” value is “novel in vivo footprints that were not seen in a pre-treatment sample became apparent”. The “region of new protection upstream of the GATA-1 binding sequence” value in assay [1] (treated patients (FIG. 15)) is on record as “about 40 bp”. Further, in assay [2] (setting [3]), the “new binding activity (activator)” value is on record as “a new binding activity appeared” and the “other binding activity (repressor)” value is “disappeared”. For the same molecule, in assay [2] (patient with sickle cell anemia who did not respond), the “activator and repressor bands in non-responder” value is “no increase in the intensity of the activator band or loss of the repressor band”. Also, the “stimulation of fetal globin production” value in the assay with fetal globin production was “effective in stimulating fetal globin production”.

(Values after patent US6011000A, “Compositions for the treatment of blood disorders” (priority 1995, dated 2000).)
